The target of experiment [1] is T1, rabbit skeletal RyR1 (native RyR1 in HSR) (Oryctolagus cuniculus, UniProt P11716).
T1 construct: tested using native RyR1 in rabbit skeletal HSR; from tissue; host or cells: rabbit fast-twitch back and leg muscles (heavy SR vesicles)
The experiment can be described thus: Planar lipid bilayer single-channel recording, native RyR1 in HSR. The format is biochemical. The note with it: for EC50 of Psubstate compared with wild type (in words): native RyR1 (Figure 2(b)), Figure 5(b), purified RyR1, also cited in sentence; for EC50: native RyR1 in SR, toxin cis, 6-100 nM, -30 mV, [Ca^2+]free 10 μM, pH 7.2, Hill fit, means ± SE of 3–9 experiments, read-out: EC50 for Psubstate. As for the experimental part:
A heavy fraction of fragmented SR vesicles (HSR) containing junctional SR was prepared from rabbit fast-twitch back and leg muscles as described previously.
(§1) Single-channel recordings of rabbit skeletal RyR1 incorporated into planar lipid bilayers were carried out as described previously. Lipid bilayers, consisting of brain tissue phosphatidylethanolamine and phosphatidylserine (1 : 1) in decane (20 mg/mL) were formed across a hole of approximately 200 μm diameter. Thinning of the bilayer was monitored by bilayer capacitance. The basic composition of the cis/trans solution consisted of 300 mM cesium methanesulfonate, 10 mM Tris/Hepes (pH 7.2), 2 mM EGTA, and 1.998 mM CaCl2 ([Ca^2+]free = 10 μM). [Ca^2+]free was calculated using the “Chelator” program (Theo Schoenmaker). Cs^+ was selected as the charge carrier to ensure precise control of free [Ca^2+], to increase the channel conductance, and to avoid any contribution from potassium channels present in the SR membrane. Chloride channels were inhibited by using the impermeant anion methanesulfonate. Incorporation of ion channels was carried out as described by Miller and Racker and confirmed by recording the characteristically high single-channel conductance of RyRs. The trans side was maintained at ground and the cis side was clamped at −30 mV relative to the ground. After addition of the IpTxa to the cis chamber, the single channel data were collected at −30 mV for 2–5 min. […] Recordings were filtered with an 8-pole low-pass Bessel filter at 1 kHz and digitalized through a Digidata 1200 series interface (Axon Instruments). Data acquisition and analysis were done with the Axon Instruments software, pClamp v7.0.
(§2) Data were analyzed using the Hill equation described previously:
(§3) (1) Psubstate=(Psubstate, max )/[1+(EC50/[IpTxa])^nH] orPo=(Po, max )/[1+(EC50/[IpTxa])^nH], where (Po, max ) is the Po observed at saturating concentrations of IpTxa, EC50 is the IpTxa concentration for which 50% of Po, max is obtained and nH is the Hill coefficient. Also, Psubstate, max is the Psubstate observed at saturating concentrations of IpTxa, EC50 is the IpTxa concentration for which 50% of Psubstate, max is obtained, and nH is the Hill coefficient. The probability of full open state of the channel (Po) was defined as the ratio of the time spent in the open state to the total time exclusive of time spent in the substate. The probability to obtain substate (Psubstate) was calculated as the time spent in the substate divided by a given total recording time. The durations of the substate were obtained by manual positioning of the cursors and constructing all point histograms. Mean duration of substate was measured by total substate time divided by total substate frequencies.
(§4) Results are given as means ± SE. Significant differences were analyzed using Student's t-test. Differences were considered to be significant when P < 0.05. The fitting of the data to the graphs were carried out using the software, Origin v7.
To examine how IpTxa modifies RyR1 activity, RyR1 in HSR incorporated in planar lipid bilayers was tested in the presence or absence of synthetic wild-type IpTxa. The chamber solutions for both cis (cytosolic) and trans (luminal) sides included 300 mM cesium methanesulfonate and 10 mM Tris-Hepes (pH 7.2). 10 μM free Ca^2+ was added to the cis side to activate the incorporated RyR1. After an addition of IpTxa to the cis chamber, the single channel gating properties were recorded at a holding potential of −30 mV for over 2 min at each toxin concentration. […] To examine the effects of IpTxa on full open state, we calculated the probability to obtain the full open state (Po) as the time spent in the open state divided by the total time exclusive of the time spent in the substate. The time for recorded Po was in the range of 30 s–2 min. […] The steady-state Po was 0.18 ± 0.02 at 10 μM Ca^2+. […]

For another experiment, the target named is T2, purified rabbit RyR1 (Oryctolagus cuniculus, UniProt P11716).
T2 construct: we added IpTxa to purified RyR1 incorporated into planar lipid bilayers; from tissue; host or cells: rabbit skeletal muscle (inferred; purified from HSR)
Put plainly: Planar lipid bilayer single-channel recording, purified RyR1. The format is biochemical. The following applies: purified RyR1, toxin cis, 6-100 nM, -30 mV, 10 μM Ca^2+, Hill fit, means ± SE of 4–10 experiments; read-out: EC50 for Psubstate. Here is the method:
as §1, §2, §3, §4
To determine whether the activation of native RyR1 in SR by IpTxa was due to a direct activation of RyR1 or due to an indirect activation through other proteins associated to RyR1, we added IpTxa to purified RyR1 incorporated into planar lipid bilayers (Figure 3(a)). […] Purity of RyR1 at the final purification step was verified by Coomassie blue staining (Supplementary Figure 2).
Figure 3 Effects of IpTxa on purified rabbit RyR1 incorporated in planar lipid bilayers. (a) Single channel activity of purified RyR1 incorporated in planar lipid bilayers at 10 μM Ca^2+ with or without IpTxa (6–100 nM) was recorded. Single channel currents are shown as downward deflections from the closed level (indicated by c). The holding potential was −30 mV. (b) The plot of Po of purified RyR1 versus various concentrations of IpTxa is shown. (c) The plot of Psubstate of purified RyR1 versus various concentrations of IpTxa is shown. The results are shown as the means ± SE for 7 experiments. […]

Here are results for six compounds from article PMC3192407, “Both Basic and Acidic Amino Acid Residues of IpTxa Are Involved in Triggering Substate of RyR1” (Journal of Biomedicine and Biotechnology, 2011).

Bridge positions count the residues as written; N and C are the ends. Peptide text beside a SMILES is read from it.

T1 sequence (P11716 whole entry): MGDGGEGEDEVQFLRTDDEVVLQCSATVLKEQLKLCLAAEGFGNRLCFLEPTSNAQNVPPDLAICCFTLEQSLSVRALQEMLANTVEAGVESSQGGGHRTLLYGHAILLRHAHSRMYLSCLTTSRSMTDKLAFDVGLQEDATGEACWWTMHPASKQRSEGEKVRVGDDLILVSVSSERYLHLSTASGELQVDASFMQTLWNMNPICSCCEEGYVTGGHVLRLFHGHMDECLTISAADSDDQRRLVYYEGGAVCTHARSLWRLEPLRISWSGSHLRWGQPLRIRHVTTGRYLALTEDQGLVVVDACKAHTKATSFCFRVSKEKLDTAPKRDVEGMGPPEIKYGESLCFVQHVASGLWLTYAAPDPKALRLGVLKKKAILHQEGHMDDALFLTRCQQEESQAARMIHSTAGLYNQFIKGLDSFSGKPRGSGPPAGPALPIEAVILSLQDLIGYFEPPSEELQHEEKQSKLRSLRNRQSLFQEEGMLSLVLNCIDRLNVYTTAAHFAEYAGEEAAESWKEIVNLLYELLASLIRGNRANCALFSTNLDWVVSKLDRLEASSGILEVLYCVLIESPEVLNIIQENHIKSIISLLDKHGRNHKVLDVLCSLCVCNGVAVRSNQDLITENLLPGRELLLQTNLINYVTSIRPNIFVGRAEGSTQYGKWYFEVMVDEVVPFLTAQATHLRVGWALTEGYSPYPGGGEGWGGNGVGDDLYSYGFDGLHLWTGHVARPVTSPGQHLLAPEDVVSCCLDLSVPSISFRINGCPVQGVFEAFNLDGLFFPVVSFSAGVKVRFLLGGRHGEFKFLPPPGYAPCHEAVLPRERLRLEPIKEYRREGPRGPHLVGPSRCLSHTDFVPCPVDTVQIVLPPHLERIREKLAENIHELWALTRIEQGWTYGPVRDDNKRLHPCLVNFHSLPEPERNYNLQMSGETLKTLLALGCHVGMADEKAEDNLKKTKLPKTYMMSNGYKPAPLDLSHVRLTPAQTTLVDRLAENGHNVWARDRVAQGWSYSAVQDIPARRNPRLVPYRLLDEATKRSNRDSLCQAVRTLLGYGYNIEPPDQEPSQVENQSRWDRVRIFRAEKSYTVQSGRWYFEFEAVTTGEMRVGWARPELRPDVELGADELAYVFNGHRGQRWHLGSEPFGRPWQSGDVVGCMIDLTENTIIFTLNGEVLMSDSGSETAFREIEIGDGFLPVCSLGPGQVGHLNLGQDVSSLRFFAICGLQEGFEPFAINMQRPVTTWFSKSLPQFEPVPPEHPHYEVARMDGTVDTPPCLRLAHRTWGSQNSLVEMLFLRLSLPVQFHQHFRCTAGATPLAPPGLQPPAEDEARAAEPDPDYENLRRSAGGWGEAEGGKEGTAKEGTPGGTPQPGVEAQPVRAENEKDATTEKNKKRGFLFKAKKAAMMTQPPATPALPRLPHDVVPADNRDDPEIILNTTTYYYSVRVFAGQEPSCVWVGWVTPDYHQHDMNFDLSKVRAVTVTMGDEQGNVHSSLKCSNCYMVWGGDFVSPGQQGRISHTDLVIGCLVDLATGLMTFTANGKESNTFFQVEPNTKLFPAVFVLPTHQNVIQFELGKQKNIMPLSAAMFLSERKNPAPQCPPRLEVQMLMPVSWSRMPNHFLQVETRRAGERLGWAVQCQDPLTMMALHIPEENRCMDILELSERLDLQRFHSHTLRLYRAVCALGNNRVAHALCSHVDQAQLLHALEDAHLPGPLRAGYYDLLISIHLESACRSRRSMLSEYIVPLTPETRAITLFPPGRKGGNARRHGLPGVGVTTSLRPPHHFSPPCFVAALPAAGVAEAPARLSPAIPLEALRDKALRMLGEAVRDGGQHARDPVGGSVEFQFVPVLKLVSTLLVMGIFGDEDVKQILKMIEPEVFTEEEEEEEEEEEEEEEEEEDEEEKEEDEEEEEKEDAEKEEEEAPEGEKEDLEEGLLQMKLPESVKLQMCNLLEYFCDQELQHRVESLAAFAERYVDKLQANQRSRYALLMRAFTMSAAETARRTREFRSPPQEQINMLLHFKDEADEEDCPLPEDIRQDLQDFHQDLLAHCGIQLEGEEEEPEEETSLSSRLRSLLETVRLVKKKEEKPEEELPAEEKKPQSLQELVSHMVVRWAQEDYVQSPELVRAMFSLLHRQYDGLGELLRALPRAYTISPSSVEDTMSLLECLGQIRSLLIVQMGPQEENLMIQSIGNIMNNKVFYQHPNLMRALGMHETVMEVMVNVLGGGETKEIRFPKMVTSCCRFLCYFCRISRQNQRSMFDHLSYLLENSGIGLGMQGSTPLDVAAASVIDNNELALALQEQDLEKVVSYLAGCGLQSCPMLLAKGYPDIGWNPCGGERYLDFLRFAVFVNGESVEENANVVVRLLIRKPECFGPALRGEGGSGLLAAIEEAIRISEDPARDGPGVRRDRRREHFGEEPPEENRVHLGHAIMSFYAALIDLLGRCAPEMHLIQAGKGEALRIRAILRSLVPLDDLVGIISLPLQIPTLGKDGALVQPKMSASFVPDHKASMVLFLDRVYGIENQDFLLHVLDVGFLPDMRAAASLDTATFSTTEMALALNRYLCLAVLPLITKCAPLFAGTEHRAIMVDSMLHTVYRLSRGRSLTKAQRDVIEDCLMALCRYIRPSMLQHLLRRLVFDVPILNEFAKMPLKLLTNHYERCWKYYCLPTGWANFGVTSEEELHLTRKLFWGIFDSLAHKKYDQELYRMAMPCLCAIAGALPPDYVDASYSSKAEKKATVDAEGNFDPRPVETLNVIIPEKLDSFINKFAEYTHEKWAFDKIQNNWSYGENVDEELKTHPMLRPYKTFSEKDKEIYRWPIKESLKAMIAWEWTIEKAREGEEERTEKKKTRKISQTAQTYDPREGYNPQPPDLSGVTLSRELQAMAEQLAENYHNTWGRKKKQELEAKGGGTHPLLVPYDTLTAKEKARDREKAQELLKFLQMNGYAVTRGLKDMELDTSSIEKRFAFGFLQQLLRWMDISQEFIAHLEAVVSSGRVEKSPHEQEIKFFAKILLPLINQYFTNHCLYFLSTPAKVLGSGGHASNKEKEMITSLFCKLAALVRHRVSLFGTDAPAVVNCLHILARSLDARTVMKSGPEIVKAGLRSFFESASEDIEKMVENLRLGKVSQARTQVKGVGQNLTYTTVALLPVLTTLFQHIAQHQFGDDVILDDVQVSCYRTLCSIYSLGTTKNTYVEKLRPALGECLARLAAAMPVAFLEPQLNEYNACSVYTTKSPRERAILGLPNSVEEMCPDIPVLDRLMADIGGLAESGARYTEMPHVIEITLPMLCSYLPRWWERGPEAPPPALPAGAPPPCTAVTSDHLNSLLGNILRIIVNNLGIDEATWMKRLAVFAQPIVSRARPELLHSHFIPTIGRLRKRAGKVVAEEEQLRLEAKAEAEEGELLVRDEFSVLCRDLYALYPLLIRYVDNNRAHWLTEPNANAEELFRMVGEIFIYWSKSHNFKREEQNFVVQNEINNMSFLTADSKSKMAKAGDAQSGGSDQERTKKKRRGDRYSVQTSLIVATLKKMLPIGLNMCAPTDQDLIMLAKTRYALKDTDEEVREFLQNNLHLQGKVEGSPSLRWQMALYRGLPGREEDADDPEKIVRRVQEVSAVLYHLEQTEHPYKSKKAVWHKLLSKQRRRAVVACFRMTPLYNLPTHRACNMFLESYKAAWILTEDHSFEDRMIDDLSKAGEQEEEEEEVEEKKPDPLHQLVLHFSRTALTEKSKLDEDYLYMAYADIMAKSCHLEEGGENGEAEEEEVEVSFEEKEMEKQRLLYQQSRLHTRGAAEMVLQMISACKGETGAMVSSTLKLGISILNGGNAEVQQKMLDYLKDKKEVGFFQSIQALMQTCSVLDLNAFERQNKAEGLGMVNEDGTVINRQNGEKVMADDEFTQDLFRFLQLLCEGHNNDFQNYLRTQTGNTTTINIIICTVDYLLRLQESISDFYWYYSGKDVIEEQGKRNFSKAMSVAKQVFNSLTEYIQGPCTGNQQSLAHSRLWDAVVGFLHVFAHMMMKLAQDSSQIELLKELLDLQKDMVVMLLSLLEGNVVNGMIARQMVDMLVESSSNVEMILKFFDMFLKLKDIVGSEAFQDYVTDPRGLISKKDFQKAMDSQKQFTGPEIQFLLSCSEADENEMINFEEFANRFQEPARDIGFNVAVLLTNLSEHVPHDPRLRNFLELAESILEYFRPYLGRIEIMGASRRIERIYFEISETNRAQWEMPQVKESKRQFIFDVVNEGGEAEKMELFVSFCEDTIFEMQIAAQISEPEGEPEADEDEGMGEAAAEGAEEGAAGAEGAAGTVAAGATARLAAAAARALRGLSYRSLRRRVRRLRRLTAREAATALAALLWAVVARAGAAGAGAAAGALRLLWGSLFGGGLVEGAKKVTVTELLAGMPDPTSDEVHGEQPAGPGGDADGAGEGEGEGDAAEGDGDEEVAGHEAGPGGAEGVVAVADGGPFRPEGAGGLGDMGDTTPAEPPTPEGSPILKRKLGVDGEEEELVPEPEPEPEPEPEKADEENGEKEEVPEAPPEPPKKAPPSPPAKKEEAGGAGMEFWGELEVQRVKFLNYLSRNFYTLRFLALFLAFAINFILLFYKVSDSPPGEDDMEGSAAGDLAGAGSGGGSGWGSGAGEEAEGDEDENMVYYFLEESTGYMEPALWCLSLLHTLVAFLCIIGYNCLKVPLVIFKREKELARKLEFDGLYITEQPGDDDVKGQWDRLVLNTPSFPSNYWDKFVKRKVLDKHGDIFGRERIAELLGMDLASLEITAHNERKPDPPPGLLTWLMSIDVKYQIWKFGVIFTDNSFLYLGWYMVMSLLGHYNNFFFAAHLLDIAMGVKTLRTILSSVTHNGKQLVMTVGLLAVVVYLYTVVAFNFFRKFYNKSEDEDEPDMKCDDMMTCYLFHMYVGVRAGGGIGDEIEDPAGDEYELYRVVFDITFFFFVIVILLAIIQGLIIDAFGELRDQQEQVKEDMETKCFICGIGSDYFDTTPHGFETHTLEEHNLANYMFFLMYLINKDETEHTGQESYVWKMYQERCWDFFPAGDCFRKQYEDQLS
T2 sequence (P11716 whole entry): as above

A word on the EC50: it is the concentration needed to bring the measured effect to its halfway point. For the compound `CC(C)C[C@@H]1NC(=O)[C@H](Cc2c[nH]cn2)NC(=O)[C@@H]2CCCN2C(=O)[C@H](CC(C)C)NC(=O)[C@@H](NC(=O)[C@H](CC(=O)O)NC(=O)CN)CSSC[C@@H]2NC(=O)[C@@H]3CSSC[C@@H](C(=O)N[C@@H](CCCNC(=N)N)C(=O)O)NC(=O)[C@H](CCCNC(=N)N)NC(=O)[C@H](CCCCN)NC(=O)[C@H](CCC(=O)O)NC(=O)[C@H](C)NC(=O)[C@H](CC(N)=O)NC(=O)[C@H]([C@@H](C)O)NC(=O)CNC(=O)[C@H](CCCNC(=N)N)NC(=O)[C@H](CCCNC(=N)N)NC(=O)[C@H](CCCCN)NC(=O)[C@H](CSSC[C@H](NC(=O)[C@H](CCCNC(=N)N)NC(=O)[C@H](C)NC1=O)C(=O)N[C@@H](CCCCN)C(=O)N[C@@H](C)C(=O)N[C@@H](CC(=O)O)C(=O)N[C@@H](CC(N)=O)C(=O)N[C@@H](CC(=O)O)C(=O)N3)NC(=O)[C@H](CCCCN)NC(=O)[C@H](CCCCN)NC(=O)CNC2=O` [K8A] (H-GDCLPHLARCKADNDCCGKKCKRRGTNAEKRCR-OH; disulfide 3-17, 10-21, 16-32), in experiment [1], the “EC50 of Psubstate compared with wild type (in words)” value was “dramatically decreased EC50 of Psubstate” and the EC50 amounted to 5.7 ± 2.86 nM. Moreover, at purified rabbit RyR1, the EC50 was determined as 5.29 ± 4.84 nM.

With `CC(C)C[C@@H]1NC(=O)[C@H](Cc2c[nH]cn2)NC(=O)[C@@H]2CCCN2C(=O)[C@H](CC(C)C)NC(=O)[C@@H](NC(=O)[C@H](CC(=O)O)NC(=O)CN)CSSC[C@@H]2NC(=O)[C@@H]3CSSC[C@@H](C(=O)N[C@@H](CCCNC(=N)N)C(=O)O)NC(=O)[C@H](CCCNC(=N)N)NC(=O)[C@H](CCCCN)NC(=O)[C@H](CCC(=O)O)NC(=O)[C@H](C)NC(=O)[C@H](CC(N)=O)NC(=O)[C@H]([C@@H](C)O)NC(=O)CNC(=O)[C@H](CCCNC(=N)N)NC(=O)[C@H](CCCNC(=N)N)NC(=O)[C@H](C)NC(=O)[C@H](CSSC[C@H](NC(=O)[C@H](CCCNC(=N)N)NC(=O)[C@H](CCCCN)NC1=O)C(=O)N[C@@H](CCCCN)C(=O)N[C@@H](C)C(=O)N[C@@H](CC(=O)O)C(=O)N[C@@H](CC(N)=O)C(=O)N[C@@H](CC(=O)O)C(=O)N3)NC(=O)[C@H](CCCCN)NC(=O)[C@H](CCCCN)NC(=O)CNC2=O` [K22A] (H-GDCLPHLKRCKADNDCCGKKCARRGTNAEKRCR-OH; disulfide 3-17, 10-21, 16-32), the EC50 in experiment [1] turned out to be 18.5 ± 2.88 nM.

Regarding `CC(C)C[C@@H]1NC(=O)[C@H](Cc2c[nH]cn2)NC(=O)[C@@H]2CCCN2C(=O)[C@H](CC(C)C)NC(=O)[C@@H](NC(=O)[C@H](CC(=O)O)NC(=O)CN)CSSC[C@@H]2NC(=O)[C@@H]3CSSC[C@@H](C(=O)N[C@@H](CCCNC(=N)N)C(=O)O)NC(=O)[C@H](CCCNC(=N)N)NC(=O)[C@H](CCCCN)NC(=O)[C@H](CCC(=O)O)NC(=O)[C@H](C)NC(=O)[C@H](CC(N)=O)NC(=O)[C@H]([C@@H](C)O)NC(=O)CNC(=O)[C@H](CCCNC(=N)N)NC(=O)[C@H](CCCNC(=N)N)NC(=O)[C@H](CCCCN)NC(=O)[C@H](CSSC[C@H](NC(=O)[C@H](C)NC(=O)[C@H](CCCCN)NC1=O)C(=O)N[C@@H](CCCCN)C(=O)N[C@@H](C)C(=O)N[C@@H](CC(=O)O)C(=O)N[C@@H](CC(N)=O)C(=O)N[C@@H](CC(=O)O)C(=O)N3)NC(=O)[C@H](CCCCN)NC(=O)[C@H](CCCCN)NC(=O)CNC2=O` [R9A] (H-GDCLPHLKACKADNDCCGKKCKRRGTNAEKRCR-OH; disulfide 3-17, 10-21, 16-32), the EC50 in experiment [1] stood at 19.9 ± 3.16 nM.

As for `CC(C)C[C@@H]1NC(=O)[C@H](Cc2c[nH]cn2)NC(=O)[C@@H]2CCCN2C(=O)[C@H](CC(C)C)NC(=O)[C@@H](NC(=O)[C@H](CC(=O)O)NC(=O)CN)CSSC[C@@H]2NC(=O)[C@@H]3CSSC[C@@H](C(=O)N[C@@H](CCCNC(=N)N)C(=O)O)NC(=O)[C@H](CCCNC(=N)N)NC(=O)[C@H](CCCCN)NC(=O)[C@H](CCC(=O)O)NC(=O)[C@H](C)NC(=O)[C@H](CC(N)=O)NC(=O)[C@H]([C@@H](C)O)NC(=O)CNC(=O)[C@H](CCCNC(=N)N)NC(=O)[C@H](C)NC(=O)[C@H](CCCCN)NC(=O)[C@H](CSSC[C@H](NC(=O)[C@H](CCCNC(=N)N)NC(=O)[C@H](CCCCN)NC1=O)C(=O)N[C@@H](CCCCN)C(=O)N[C@@H](C)C(=O)N[C@@H](CC(=O)O)C(=O)N[C@@H](CC(N)=O)C(=O)N[C@@H](CC(=O)O)C(=O)N3)NC(=O)[C@H](CCCCN)NC(=O)[C@H](CCCCN)NC(=O)CNC2=O` [R23A] (H-GDCLPHLKRCKADNDCCGKKCKARGTNAEKRCR-OH; disulfide 3-17, 10-21, 16-32), the EC50 in experiment [1] is 19.5 ± 9.36 nM.

On to `CC(C)C[C@@H]1NC(=O)[C@H](Cc2c[nH]cn2)NC(=O)[C@@H]2CCCN2C(=O)[C@H](CC(C)C)NC(=O)[C@@H](NC(=O)[C@H](CC(=O)O)NC(=O)CN)CSSC[C@@H]2NC(=O)[C@@H]3CSSC[C@@H](C(=O)N[C@@H](CCCNC(=N)N)C(=O)O)NC(=O)[C@H](CCCNC(=N)N)NC(=O)[C@H](CCCCN)NC(=O)[C@H](CCC(=O)O)NC(=O)[C@H](C)NC(=O)[C@H](CC(N)=O)NC(=O)[C@H]([C@@H](C)O)NC(=O)CNC(=O)[C@H](C)NC(=O)[C@H](CCCNC(=N)N)NC(=O)[C@H](CCCCN)NC(=O)[C@H](CSSC[C@H](NC(=O)[C@H](CCCNC(=N)N)NC(=O)[C@H](CCCCN)NC1=O)C(=O)N[C@@H](CCCCN)C(=O)N[C@@H](C)C(=O)N[C@@H](CC(=O)O)C(=O)N[C@@H](CC(N)=O)C(=O)N[C@@H](CC(=O)O)C(=O)N3)NC(=O)[C@H](CCCCN)NC(=O)[C@H](CCCCN)NC(=O)CNC2=O` [R24A] (H-GDCLPHLKRCKADNDCCGKKCKRAGTNAEKRCR-OH; disulfide 3-17, 10-21, 16-32), for which the EC50 in experiment [1] stood at 26 ± 7.01 nM.

As for `CC(C)C[C@@H]1NC(=O)[C@H](Cc2c[nH]cn2)NC(=O)[C@@H]2CCCN2C(=O)[C@H](CC(C)C)NC(=O)[C@@H](NC(=O)[C@H](CC(=O)O)NC(=O)CN)CSSC[C@@H]2NC(=O)[C@@H]3CSSC[C@@H](C(=O)N[C@@H](CCCNC(=N)N)C(=O)O)NC(=O)[C@H](CCCNC(=N)N)NC(=O)[C@H](CCCCN)NC(=O)[C@H](CCC(=O)O)NC(=O)[C@H](C)NC(=O)[C@H](CC(N)=O)NC(=O)[C@H](C)NC(=O)CNC(=O)[C@H](CCCNC(=N)N)NC(=O)[C@H](CCCNC(=N)N)NC(=O)[C@H](CCCCN)NC(=O)[C@H](CSSC[C@H](NC(=O)[C@H](CCCNC(=N)N)NC(=O)[C@H](CCCCN)NC1=O)C(=O)N[C@@H](CCCCN)C(=O)N[C@@H](C)C(=O)N[C@@H](CC(=O)O)C(=O)N[C@@H](CC(N)=O)C(=O)N[C@@H](CC(=O)O)C(=O)N3)NC(=O)[C@H](CCCCN)NC(=O)[C@H](CCCCN)NC(=O)CNC2=O` [T26A] (H-GDCLPHLKRCKADNDCCGKKCKRRGANAEKRCR-OH; disulfide 3-17, 10-21, 16-32), in experiment [1], the “EC50 of Psubstate compared with wild type (in words)” value was “dramatically decreased EC50 of Psubstate” and the EC50 worked out at 9.98 ± 1.92 nM.
